Earlier results as cited in patent US20250288650A1, “Therapeutic Regimens and Methods for Reducing Body Weight and/or Serum Lipids using a GLP-1R and GCGR Agonist” (Spitfire Pharma LLC, priority 2024, published 2025).

Key:
[1] = 6 weeks
[2] = over 26 weeks of administration

In the case of `CCCCCCCCCCCCCCCC(=O)N[C@@H](CCC(=O)NCCCC[C@H](NC(=O)[C@H](CC(=O)O)NC(=O)[C@H](CO)NC(=O)[C@@H](NC(=O)[C@H](Cc1ccccc1)NC(=O)[C@@H](NC(=O)CNC(=O)[C@H](CCC(N)=O)NC(=O)[C@H](CO)NC(=O)[C@@H](N)Cc1c[nH]cn1)[C@@H](C)O)[C@@H](C)O)C(=O)N[C@@H](CO)C(=O)N[C@@H](CCC(=O)O)C(=O)N[C@@H](Cc1ccc(O)cc1)C(=O)N[C@@H](CC(C)C)C(=O)N[C@@H](CC(=O)O)C(=O)N[C@@H](CO)C(=O)N[C@@H](CCC(=O)O)C(=O)N[C@@H](CCCNC(=N)N)C(=O)N[C@@H](C)C(=O)N[C@@H](CCCNC(=N)N)C(=O)N[C@@H](CC(=O)O)C(=O)N[C@@H](Cc1ccccc1)C(=O)N[C@H](C(=O)N[C@@H](C)C(=O)N[C@@H](Cc1c[nH]c2ccccc12)C(=O)N[C@@H](CC(C)C)C(=O)N[C@@H](CCC(=O)O)C(=O)N[C@@H](C)C(=O)NCC(=O)NCC(=O)O)C(C)C)C(=O)O` [cotadutide], the “reduction in liver fat content” value [1] is given as 39% and the “degree of weight loss” value [2] is given as 5.4%.
